In the assay the test system is E. coli ATCC 35218. As to the kind of experiment: Resistance development assay. The class given is cell-based. To be noted: after 16 passages, serial passaging in sub-MIC concentrations.

For the compound `O=C(O)c1cn(C2CC2)c2cc(N3CCNCC3)c(F)cc2c1=O` [ciprofloxacin], the “fold increase of MIC against E. coli ATCC 35218” value is listed as 256 fold.

In the case of colistin, the “fold increase of MIC against E. coli ATCC 35218” value turned out to be 128 fold.

The record behind these values is PMC11364095 (Science Advances, 2024).
